Tested on: PGY-sRNA-26
Assay: In vivo delivery study of lipid-nucleic acid mixture (oral gavage, RT-qPCR of PGY-sRNA-26 in tissues)
Design: species or system mouse
Settings: C57BL/6 mice, gavage, 100 μg lipid: 10 nmol PGY-sRNA-26, 12 hours; for oral delivery of single-stranded sRNA nucleic acids into mouse intestinal tissue: intestine; for delivery efficacy over each tissue and blood tested (broad-spectrum delivery): all tissues and blood tested
How it was run: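 C57BL/6 male mice (~6 weeks, 20-24 g), fasted 12 h, were gavaged with 10 nmol 3′-methylated PGY-sRNA-26 mixed with 100 μg lipid (heated 90° C. 15 min), versus saline or free sRNA (n=4 each). After 12 h, blood and tissues were Trizol-extracted; sRNA quantified by stem-loop RT-qPCR relative to U6.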

SMILES | oral delivery of single-stranded sRNA nucleic acids into mouse brain tissue | oral delivery of single-stranded sRNA nucleic acids into mouse femur | oral delivery of single-stranded sRNA nucleic acids into mouse heart tissue | oral delivery of single-stranded sRNA nucleic acids into mouse intestinal tissue | oral delivery of single-stranded sRNA nucleic acids into mouse kidney tissue | oral delivery of single-stranded sRNA nucleic acids into mouse lung tissue | oral delivery of single-stranded sRNA nucleic acids into mouse spleen tissue | oral delivery of single-stranded sRNA nucleic acids into mouse stomach tissue | delivery efficacy over each tissue and blood tested (broad-spectrum delivery) | oral delivery of single-stranded sRNA nucleic acids into mouse blood | oral delivery of single-stranded sRNA nucleic acids into mouse liver tissue
C#C[C@]1(O)CC[C@H]2[C@@H]3CCc4cc(O)ccc4[C@H]3CC[C@@]21C [Lipid 591] | can effectively orally deliver | can effectively orally deliver | can effectively orally deliver | can effectively orally deliver | can effectively orally deliver | can effectively orally deliver | can effectively orally deliver | can effectively orally deliver |  |  | 
C[C@H](CCC(=O)O)[C@H]1CC[C@H]2[C@@H]3[C@@H](O)C[C@@H]4C[C@H](O)CC[C@]4(C)[C@H]3CC[C@]12C [Lipid 592] | can effectively orally deliver | can effectively orally deliver | can effectively orally deliver | can effectively orally deliver | can effectively orally deliver | can effectively orally deliver | can effectively orally deliver | can effectively orally deliver | exhibited the best delivery efficacy | can effectively orally deliver | can effectively orally deliver
C[C@]12CC[C@@H]3c4ccc(O)cc4CC[C@H]3[C@@H]1C[C@@H](O)[C@@H]2O [Lipid 633] | can effectively orally deliver | can effectively orally deliver | can effectively orally deliver | can effectively orally deliver | can effectively orally deliver | can effectively orally deliver | can effectively orally deliver | can effectively orally deliver | exhibited the best delivery efficacy | can effectively orally deliver | can effectively orally deliver
CC(C)CCC[C@@H](C)[C@H]1CC[C@H]2[C@@H]3CC[C@H]4CCCC[C@]4(C)[C@H]3CC[C@]12C [Lipid 653, 5α-cholestane (5R,8R,9S,10S,13R,14S,17R)-10,13-dimethyl-17-[(2R)-6-methylheptan-2-yl]-2,3,4,5,6,7,8,9,11,12,14,15,16,17-tetradecahydro-1H-cyclopenta[a]phenanthrene] | can effectively orally deliver | can effectively orally deliver | can effectively orally deliver | can effectively orally deliver | can effectively orally deliver | can effectively orally deliver | can effectively orally deliver | can effectively orally deliver | exhibited the best delivery efficacy | can effectively orally deliver | can effectively orally deliver

Reference: US20240293551A1, “USE OF ST-TYPE LIPID COMPOUNDS IN PREPARATION OF NUCLEIC ACID DELIVERY REAGENT AND RELATED PRODUCT” (INSTITUTE OF BASIC MEDICAL SCIENCES CHINESE ACADEMY OF …, priority 2021, published 2024)
